Test results from patent US11046701B2, “Salt of cetagliptin, preparation method thereof, pharmaceutical composition, and use thereof” (CGENETECH (SUZHOU, CHINA) CO., LTD., priority 2018, dated 2021).
Where “and” joins values, the source holds several entries; their conditions need not be identical. Equal entries are not always repeated. Where two headings read alike, the source gives them in different places.

Experiments:
[1] = PK/PD experiment of ICR mice: plasma concentration; format: in vivo, CD-1 (ICR) mice; conditions: CD-1 (ICR), mouse; for AUC: read-out: Drug exposure (AUCeff0-3 h)
Experimental: (§1) Experimental animals: CD-1 (ICR) mice aged for 4 weeks and weighed for about 18-22 g.
(§2) Grouping and administration scheme: the mice were fed adaptively, randomly grouped according to the weight on the day before experiment, and fasted overnight. […] After the experimental grouping, the group provided separately for detecting the initial basic value of DPPIV was carried out blood sampling, and other animals were intragastrically administrated with the drug at an administration volume of 10 mL/kg, the blood was sampled after the administration, and all other animals were stimulated with glucose administration; the blood was sampled at 20 min, 40 min, 60 min and 120 min after the glucose administration, respectively, and the plasma concentration and the DPPIV activity were detected by using plasma.
Research on pharmacodynamics-plasma concentration correlation: blood samples were collected at time points of 1 h, 1.33 h, 1.67 h, 2 h and 3 h after administration, and the plasma concentration was measured. The drug exposure value (AUCeff0-3h) of the DPPIV-P1 increased with the increase of dose, which was 16.09 ng·h/mL, 52.65 ng·h/mL, 162.3 ng·h/mL and 542.28 ng·h/mL, respectively.

[2] = Dynamic vapor sorption (DVS); format: physicochemical
Experimental: Dynamic vapor sorption (DVS): Dynamic vapor sorption (DVS) curves were acquired by DVS Intrinsic of SMS (Surface Measurement Systems). The relative humidity at 25° C. was corrected by deliquescence points of LiCl, Mg(NO3)2 and KCl.
(§3) The crystal form B of phosphate prepared in this example was put into a 1.5 mL small bottle and the small bottles was placed under different conditions: 40° C./75% RH or 25° C./60% RH for one week in an open state, or 80° C. for 24 h. The obtained samples were subjected to XRPD test and HPLC test, and the sealed samples placed at 5° C. were used as reference samples (Initial) for HPLC purity test. […] The weight gain at 25° C./80% RH is 6.5% compared to 0% RH.

DIO mice [3] = assay: Long-term administration on DIO mice: serum metabolic parameters (NEFA, TCHO, TG, insulin); format: in vivo, C57BL16 mice; conditions: end of long-term administration; for Serum NEFA / Serum TCHO / Serum TG / Serum insulin: fasted overnight
Description: Experimental animals: […] Table 18 was a total data table of the metabolic parameters.

serum DPPIV [4] = molecular target: T1, serum DPPIV (Mus musculus, UniProt P28843); assay: Long-term administration on DIO mice: inhibition of serum DPPIV; format: in vivo, C57BL16 mice; design: from tissue; host or cells: serum of diet-induced obese C57BL mice after 28 days of oral dosing; conditions: after long-term administration
Description: Table 18 was a total data table of the metabolic parameters.

DIO mice [5] = assay: Long-term administration on DIO mice: fasting blood glucose; format: in vivo; conditions: for inhibition rate of the rise of the blood glucose: end of experiment (28 days), vs model control group; for fasting blood glucose data after the drug was administrated for 28 days: individual animals
Experimental: (§4) A solution with a certain concentration was prepared from the crystal form B of the phosphate, and the administration volume was 10 mL/kg.
(§5) Experimental animals: C57BL16 mice aged for 5 weeks and weighed for about 13-16 g.
(§6) Grouping and administration scheme: the mice were fed adaptively and divided into a normal control group and a model group which were fed with high-fat feed (Research diets, D 12492). When the fasting blood glucose of the mice was greater than or equal to 7 mM, it was considered that the mice had become DIO mice. The DIO mice could be selected for the hypoglycemic effect test. The DIO mice were stratified and randomly grouped according to the blood glucose and the weight. […] The weight and the fasting blood glucose were measured weekly; the food amount, the remaining food amount and the food intake were recorded; the mice were fasted overnight at the end of administration, the blood was sampled, and the free fatty acid (NEFA), total cholesterol (TCHO), triglyceride (TG), insulin and DPPIV activity were measured by using serum.

[6] = Weight of ICR mice of each group; format: in vivo, CD-1 (ICR) mice; conditions: individual animals
Experimental: as §1, §2

serum DPPIV [7] = molecular target: T1, serum DPPIV; assay: PK/PD experiment of ICR mice: activity of serum DPPIV; format: in vivo, CD-1 (ICR) mice; design: the plasma concentration and the DPPIV activity were detected by using plasma; from tissue; host or cells: blood plasma/serum of CD-1 (ICR) mice after oral dosing; conditions: ICR mice, 0.1, 0.3, 1 and 3 mg/kg intragastric (FIG. 28)
Experimental: as §1, §2

[8] = mouse, in vivo, po
Experimental: as §4, §5, §6

[9] = Stability of phosphate crystal form B under storage conditions (XRPD, HPLC purity); format: physicochemical
Experimental: High performance liquid chromatography (HPLC): the high performance liquid chromatogram was acquired by Agilent 1260 HPLC.
as §3

T1 sequence (P28843 38-760 limits assumed): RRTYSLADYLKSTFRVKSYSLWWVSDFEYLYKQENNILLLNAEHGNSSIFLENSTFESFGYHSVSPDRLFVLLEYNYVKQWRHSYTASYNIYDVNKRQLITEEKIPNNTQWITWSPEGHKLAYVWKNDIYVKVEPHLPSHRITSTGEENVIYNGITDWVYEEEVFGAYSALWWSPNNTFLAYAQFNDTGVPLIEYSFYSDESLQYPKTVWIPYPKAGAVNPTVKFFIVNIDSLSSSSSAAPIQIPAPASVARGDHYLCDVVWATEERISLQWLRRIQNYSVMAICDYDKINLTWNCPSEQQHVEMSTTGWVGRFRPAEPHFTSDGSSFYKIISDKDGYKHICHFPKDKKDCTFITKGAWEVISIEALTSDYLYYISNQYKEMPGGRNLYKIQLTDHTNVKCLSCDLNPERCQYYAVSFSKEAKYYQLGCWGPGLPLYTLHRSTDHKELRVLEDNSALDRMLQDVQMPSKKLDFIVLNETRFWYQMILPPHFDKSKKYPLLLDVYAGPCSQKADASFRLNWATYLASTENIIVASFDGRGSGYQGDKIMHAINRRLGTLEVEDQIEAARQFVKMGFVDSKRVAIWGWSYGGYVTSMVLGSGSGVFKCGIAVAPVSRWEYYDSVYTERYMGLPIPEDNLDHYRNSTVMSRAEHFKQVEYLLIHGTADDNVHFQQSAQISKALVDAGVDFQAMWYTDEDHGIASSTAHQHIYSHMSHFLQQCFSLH

SMILES: C[C@@H]1c2cnc(C(F)(F)F)n2CCN1C(=O)C[C@H](N)Cc1cc(F)c(F)cc1F [DPPIV-P1, (8R)-7-[(3R)-3-amino-1-oxo-4-(2,4,5-trifluorophenyl)butyl]-5,6,7,8-tetrahydro-8-methyl-3-(trifluoromethyl)imidazo[1,5-a]pyrazine]
- concentration at 1 h ([1]; oral dose 0.1 mg/kg): 8.28 ± 0.96 ng/mL
- concentration at 1.33 h ([1]; oral dose 0.1 mg/kg): 6.51 ± 1.58 ng/mL
- concentration at 1.67 h ([1]; oral dose 0.1 mg/kg): 6.46 ± 0.2 ng/mL
- concentration at 2 h ([1]; oral dose 0.1 mg/kg): 5.73 ± 0.65 ng/mL
- concentration at 3 h ([1]; oral dose 0.1 mg/kg): 4.85 ± 0.25 ng/mL
- AUC ([1]; oral dose 0.1 mg/kg): 16.1 ng·h/mL
- concentration at 1 h ([1]; oral dose 0.3 mg/kg): 26.4 ± 6.47 ng/mL
- concentration at 1.33 h ([1]; oral dose 0.3 mg/kg): 25 ± 3.42 ng/mL
- concentration at 1.67 h ([1]; oral dose 0.3 mg/kg): 17.9 ± 2.43 ng/mL
- concentration at 2 h ([1]; oral dose 0.3 mg/kg): 20.5 ± 0.32 ng/mL
- concentration at 3 h ([1]; oral dose 0.3 mg/kg): 14.2 ± 1.48 ng/mL
- AUC ([1]; oral dose 0.3 mg/kg): 52.6 ng·h/mL
- concentration at 1 h ([1]; oral dose 1 mg/kg): 72.8 ± 7.04 ng/mL
- concentration at 1.33 h ([1]; oral dose 1 mg/kg): 71.9 ± 2.71 ng/mL
- concentration at 1.67 h ([1]; oral dose 1 mg/kg): 75.2 ± 6.09 ng/mL
- concentration at 2 h ([1]; oral dose 1 mg/kg): 57.9 ± 2.06 ng/mL
- concentration at 3 h ([1]; oral dose 1 mg/kg): 52.2 ± 5.54 ng/mL
- AUC ([1]; oral dose 1 mg/kg): 162 ng·h/mL
- concentration at 1 h ([1]; oral dose 3 mg/kg): 231 ± 16.6 ng/mL
- concentration at 1.33 h ([1]; oral dose 3 mg/kg): 292 ± 47.2 ng/mL
- concentration at 1.67 h ([1]; oral dose 3 mg/kg): 242 ± 17.7 ng/mL
- concentration at 2 h ([1]; oral dose 3 mg/kg): 201 ± 44.7 ng/mL
- concentration at 3 h ([1]; oral dose 3 mg/kg): 151 ± 26.4 ng/mL
- AUC ([1]; oral dose 3 mg/kg): 542 ng·h/mL
- weight gain (DVS) ([2]; 25° C./80% RH compared to 0% RH): 6.5%
- crystal form before and after the DVS test (XRPD) ([2]; after DVS test): the crystal form remained unchanged
- decrease of insulin compared with the model control group (DIO mice [3]; 0.3 mg/kg): 28.3%
- Serum NEFA (DIO mice [3]; 0.3 mg/kg): 1.21 ± 0.07 mmol/L
- Serum TCHO (DIO mice [3]; 0.3 mg/kg): 5.01 ± 0.58 mmol/L
- Serum TG (DIO mice [3]; 0.3 mg/kg): 1.04 ± 0.13 mmol/L
- Serum insulin (DIO mice [3]; 0.3 mg/kg): 3.2 ± 2.44 ng/mL
- Serum NEFA (DIO mice [3]; 3 mg/kg): 1.08 ± 0.14 mmol/L
- Serum TCHO (DIO mice [3]; 3 mg/kg): 5.06 ± 0.65 mmol/L
- Serum TG (DIO mice [3]; 3 mg/kg): 0.94 ± 0.15 mmol/L
- Serum insulin (DIO mice [3]; 3 mg/kg): 4.7 ± 3.55 ng/mL
- decrease of total cholesterol (TCHO) compared with the model control group (DIO mice [3]; 30 mg/kg): 18.4%
- Serum NEFA (DIO mice [3]; 30 mg/kg): 1.01 ± 0.11 mmol/L
- Serum TCHO (DIO mice [3]; 30 mg/kg): 4.36 ± 0.45 mmol/L
- Serum TG (DIO mice [3]; 30 mg/kg): 0.83 ± 0.11 mmol/L
- Serum insulin (DIO mice [3]; 30 mg/kg): 4.9 ± 4.04 ng/mL
- inhibition effect on the serum DPPIV compared with sitagliptin phosphate (serum DPPIV [4]): obviously higher than that of sitagliptin phosphate
- inhibition at 0.3 mg/kg (serum DPPIV [4]; mouse, 0.3 mg/kg, vs model control group, read-out: inhibition rate against DPPIV (serum)): 47.1%
- inhibition at 3 mg/kg (serum DPPIV [4]; mouse, 3 mg/kg, vs model control group, read-out: inhibition rate against DPPIV (serum)): 82.7%
- inhibition at 30 mg/kg (serum DPPIV [4]; mouse, 30 mg/kg, vs model control group, read-out: inhibition rate against DPPIV (serum)): 95.3%
- Fasting blood glucose (DIO mice [5]; 0.3 mg/kg daily intragastric, D 1): 8.3 ± 1.1 mmol/L
- Fasting blood glucose (DIO mice [5]; 0.3 mg/kg daily intragastric, D 3): 8.4 ± 0.9 mmol/L
- Fasting blood glucose (DIO mice [5]; 0.3 mg/kg daily intragastric, D 7): 8.4 ± 1.0 mmol/L
- Fasting blood glucose (DIO mice [5]; 0.3 mg/kg daily intragastric, D 14): 8.9 ± 1.1 mmol/L
- Fasting blood glucose (DIO mice [5]; 0.3 mg/kg daily intragastric, D 21): 8.5 ± 1.0 mmol/L
- Fasting blood glucose (DIO mice [5]; 0.3 mg/kg daily intragastric, D 28): 8.3 ± 0.8 mmol/L
- inhibition rate of the rise of the blood glucose (DIO mice [5]; 0.3 mg/kg): 14.2%
- Fasting blood glucose (DIO mice [5]; 3 mg/kg daily intragastric, D 1): 8.3 ± 1.1 mmol/L
- Fasting blood glucose (DIO mice [5]; 3 mg/kg daily intragastric, D 3): 8.3 ± 0.9 mmol/L
- Fasting blood glucose (DIO mice [5]; 3 mg/kg daily intragastric, D 7): 8.6 ± 2.2 mmol/L
- Fasting blood glucose (DIO mice [5]; 3 mg/kg daily intragastric, D 14): 9.1 ± 1.6 mmol/L
- Fasting blood glucose (DIO mice [5]; 3 mg/kg daily intragastric, D 21): 8.6 ± 1.0 mmol/L
- Fasting blood glucose (DIO mice [5]; 3 mg/kg daily intragastric, D 28): 8.7 ± 0.9 mmol/L
- inhibition rate of the rise of the blood glucose (DIO mice [5]; 3 mg/kg): 9.9%
- Fasting blood glucose (DIO mice [5]; 30 mg/kg daily intragastric, D 1): 8.3 ± 1.0 mmol/L
- Fasting blood glucose (DIO mice [5]; 30 mg/kg daily intragastric, D 3): 7.8 ± 1.5 mmol/L
- Fasting blood glucose (DIO mice [5]; 30 mg/kg daily intragastric, D 7): 7.9 ± 0.8 mmol/L
- Fasting blood glucose (DIO mice [5]; 30 mg/kg daily intragastric, D 14): 7.7 ± 0.7 mmol/L
- Fasting blood glucose (DIO mice [5]; 30 mg/kg daily intragastric, D 21): 8.1 ± 0.6 mmol/L
- Fasting blood glucose (DIO mice [5]; 30 mg/kg daily intragastric, D 28): 7.9 ± 0.6 mmol/L
- inhibition rate of the rise of the blood glucose (DIO mice [5]; 30 mg/kg): 18.5%
- fasting blood glucose data after the drug was administrated for 28 days (DIO mice [5]; 0.3 mg/kg): 10.3 and 8 (3×) and 7.3 (2×) and 8.8 and 8.7 and 8.3 and 8.6 and 7.9
- fasting blood glucose data after the drug was administrated for 28 days (DIO mice [5]; 3 mg/kg): 9.2 and 7.8 (2×) and 9.8 and 8.9 and 9 and 7.3 and 9.7 and 8 and 8.3 and 10
- fasting blood glucose data after the drug was administrated for 28 days (DIO mice [5]; 30 mg/kg, listed as DPPIV-PI): 8.5 and 7.3 and 7.4 (3×) and 7.6 and 8.9 and 8.2 (2×) and 7.5 and 7.8
- weight ([6]; 0.1 mg/kg group, 0.1 mg/kg, in g (unit assumed)): 22.0 and 24.5 and 24.7 and 25.1 and 26.3 and 26.9 and 24.6 and 23.4 and 24.4 and 25.0 and 23.0 and 24.8 and 24.9 and 26.2 and 24.2
- weight ([6]; 0.3 mg/kg group, 0.3 mg/kg): 25.3 (2×) and 24.0 and 24.1 and 23.9 and 24.9 (2×) and 24.6 and 26.4 and 26.0 and 25.5 and 22.0 and 22.6 and 25.0 and 24.4
- weight ([6]; 1 mg/kg group, 1 mg/kg): 26.9 and 25.1 (2×) and 23.5 and 23.6 (2×) and 24.9 (2×) and 24.8 and 26.1 and 25.8 and 26.4 and 25.2 and 22.4 and 23.4
- weight ([6]; 3 mg/kg group, 3 mg/kg, in g (unit assumed)): 25.0 and 24.8 and 23.0 and 25.4 and 21.7 and 27.3 and 22.3 and 22.4 and 25.7 and 24.0 and 23.3 and 24.1 and 25.2 and 27.2 and 24.5
- influence on the activity of serum DPPIV (serum DPPIV [7]): good dose-effect relationship
- tolerance after long-term administration [8]: good in tolerance and not easy to induce hypoglycemia
- Crystal form ([9]; 25° C./60% RH, one week): Phosphate crystal form B
- Purity (area %) ([9]; 25° C./60% RH, one week, open): 99.65 area %
- Crystal form ([9]; 40° C./75% RH, one week): Phosphate crystal form B
- Purity (area %) ([9]; 40° C./75% RH, one week, open): 99.64 area %
- Appearance ([9]; 80° C. for 24 h): changed from white solid into yellow solid
- Crystal form ([9]; 80° C., 24 h): Phosphate crystal form B
- Purity (area %) ([9]; 80° C., 24 h): 99.48 area %
- Crystal form ([9]; Initial): Phosphate crystal form B
- Purity (area %) ([9]; Initial (sealed reference sample placed at 5° C.)): 99.78 area %
